From US5399697A, “N,N',N'-trisubstituted-5-bisaminomethylene-1,3-dioxane-4,6-dione inhibitors of acyl-CoA:cholesterol-acyl transferase” (American Home Products Corporation, priority 1993, dated 1995)
Where two headings read alike, the source gives them in different places.

What was measured:
[1] = system: cholesterol absorption; test: 14C-cholesterol absorption in normal rats (oral gavage); format: in vivo; conditions: Rattus norvegicus; for ED50: normal fed rats
Experimental: Representative compounds were further tested in vivo to establish the percent inhibition of cholesterol absorption. In this study, normal rats were dosed (oral gavage) with ^14 C-cholesterol plus the test compound. Blood samples taken at six hours and/or intermittently up to twenty-four hours were analyzed and the percent inhibition of cholesterol absorption was calculated.

[2] = system: plasma cholesterol; test: Plasma cholesterol in cholesterol-cholic acid fed rats; format: in vivo; conditions: Rattus norvegicus, oral gavage; for change in vivo at 40 mg/kg / change in vivo at 100 mg/kg / change in vivo at 20 mg/kg: 96 h, four days; for ED50: fifty percent reduction of plasma cholesterol
Experimental: In addition, representative compounds were studied in vivo in cholesterol-cholic acid fed rats to determine the percent decrease of cholesterol in their plasma. This study involves rats which are, prior to testing, trained for one week to eat over a four hour time period each day. Upon initiation of the experiment, the rats diet is supplemented with 1.0 percent cholesterol and 0.25 percent cholic acid. The rats are dosed with the test compound by oral gavage just prior to adjust following the four hour feeding period. This is repeated for four days. On the fifth day, the rats are sacrificed and the total plasma cholesterol content is determined. The percent decrease in elevated plasma cholesterol levels is calculated in comparison with […].

[3] = system: acyl-coenzyme A: cholesterol acyltransferase; test: Inhibition of ACAT / intracellular cholesterol esterification in vitro (procedure of Ross et al.); format: cell-based; conditions: for % Inhibition: 25 μM; for IC50: read-out: IC50
[4] = read-out: % Decrease in Plasma Cholesterol
[5] = normal rats, read-out: % Inhibition of Absorption

| SMILES | change in vivo at 20 mg/kg ([1]; normal rats, 20 mg/kg, read-out: % Inhibition of Absorption) [%] | change in vivo at 40 mg/kg [2, 4] [%] | % Inhibition [3] [%] | IC50 [3] [nM] | ED50 [1] [mg/kg] | change in vivo at 100 mg/kg ([2]; heading: % Decrease in Plasma Cholesterol) [%] | ED50 [2] [mg/kg] | change in vivo at 50 mg/kg ([1]; normal rats, 50 mg/kg, read-out: % Inhibition of Absorption) [%] | change in vivo at 20 mg/kg [2, 4] [%] | change in vivo at 200 mg/kg [1, 5] [%] | change in vivo at 100 mg/kg [2, 4] [%] | change in vivo at 10 mg/kg [1, 5] [%] |
| --- | --- | --- | --- | --- | --- | --- | --- | --- | --- | --- | --- | --- |
| CCCCCC(C)N(Cc1ccc(C(C)(C)C)cc1)C(Nc1ccc(OCCCC)cc1)=C1C(=O)OC(C)(C)OC1=O (stereo not drawn) [Compound 27, 5-[[(4-Butoxyphenyl)amino][[[4-(1,1-dimethylethyl)phenyl]methyl](1-methylhexyl)amino]-methylene]-2,2-dimethyl-1,3-dioxane-4,6-dione] | -58 | -31 | 96 | 230 | – | – | – | – | – | – | – | – |
| CC(C)CCCC(C)N(Cc1ccc(CC(C)C)cc1)C(Nc1ccc(N(C)C)cc1)=C1C(=O)OC(C)(C)OC1=O (stereo not drawn) [Compound 42] | – | -63 | 98 | 270 | 5 | – | – | – | – | – | – | – |
| CCCCCC(C)N(Cc1ccc(CC(C)(C)C)cc1)C(Nc1ccc(OC)cc1OC)=C1C(=O)OC(C)(C)OC1=O (stereo not drawn) [Compound 7, 5-[[(2,4-Dimethoxyphenyl)amino][[[4-(2,2-dimethylpropyl)phenyl]methyl](1-methylhexyl)amino]methylene]-2,2-dimethyl-1,3-dioxane-4,6-dione] | – | – | 99 | 830 | 3 | -100 | 6 | – | – | – | – | – |
| CCCCCC(C)N(Cc1ccc(CC(C)(C)C)cc1)C(Nc1c(C)cc(N(C)C)cc1C)=C1C(=O)OC(C)(C)OC1=O (stereo not drawn) [Compound 33, 5-[[[2,6-Dimethyl-4-(dimethylamino)phenyl]amino][[[4-(2,2-dimethylpropyl)phenyl]methyl](1-methylhexyl)amino]methylene]-2,2-dimethyl-1,3-dioxane-4,6-dione] | – | – | 98 | 380 | – | – | – | -86 | -30 | – | – | – |
| CCCCCC(C)N(Cc1ccc(C(C)(C)C)cc1)C(Nc1ccc(OC)cc1OC)=C1C(=O)OC(C)(C)OC1=O (stereo not drawn) [Compound 4, 5-[[(2,4-Dimethoxophenyl)amino][[[4-(1,1-dimethylethyl)phenyl]methyl](1-methylhexyl)amino]-methylene]-2,2-dimethyl-1,3-dioxane-4,6-dione] | – | – | 99 | 260 | 10 | – | 64 | – | – | -93 | -98 | – |
| CCCCCCCN(Cc1ccc(CC(C)(C)C)cc1)C(Nc1ccc(OC)cc1OC)=C1C(=O)OC(C)(C)OC1=O [Compound 48, 5-[[(2,4-Dimethoxyphenyl)amino][[[4-(2,2-dimethylpropyl)phenyl]methyl]heptylamino]-methylene]-2,2-dimethyl-1,3-dioxane-4,6-dione] | – | – | 94 | 2900 | 11 | – | 25 | – | – | -84 | -60 | – |
| CCCCCC(C)N(Cc1ccc(CC(C)C)cc1)C(Nc1ccc(N(C)C)cc1C)=C1C(=O)OC(C)(C)OC1=O (stereo not drawn) [Compound 46] | – | – | 98 | 350 | 2 | – | 8 | – | -70 | – | – | -82 |
| CCCCCC(C)N(Cc1ccc(CC(C)(C)C)cc1)C(Nc1ccc(N(C)C)cc1C)=C1C(=O)OC(C)(C)OC1=O (stereo not drawn) [Compound 47] | – | – | 98 | 260 | 3 | – | 16 | – | – | – | – | -83 |
| CCCCCc1ccc(CN(C(Nc2ccc(N(C)C)cc2)=C2C(=O)OC(C)(C)OC2=O)C(C)CCCCC)cc1 (stereo not drawn) [Compound 41, 5-[[[4-(Dimethylamino)phenyl]amino][(1-methylhexyl)[(4-pentylphenyl)methyl]amino]-methylene]-2,2-dimethyl-1,3-dioxane-4,6-dione] | – | -89 | 98 | 260 | 3 | – | 7 | – | – | – | – | – |
